The values below come from PMC6503470, “Antibacterial Oligomeric Polyphenols from the Green Alga Cladophora socialis” (The Journal of Organic Chemistry, 2019).

Converted amounts (≈) assume the structure as drawn. Where two headings read alike, the source gives them in different places.

For data set [1], the system named is vancomycin-resistant Enterococcus faecium (VREF, ATCC 700221). The experiment in a line: Antibacterial MIC assay, VREF. It counts as cell-based. The following applies: ATCC700221, MIC90, values expressed as 95% confidence interval, read-out: Minimal inhibitory concentration, VREF.
Data set [2] concerns P. falciparum strain Dd2L. The data set is described as follows: Parasite proliferation assay, asexual blood-stage P. falciparum, SYBR Green. The data set is classed as cell-based. Conditions: Plasmodium falciparum. As for the experimental part: Antimalarial activity was assessed using a standard parasite proliferation assay with asexual blood-stage P. falciparum and SYBR Green detection.[22] Screening media (complete media supplemented with 0.05% Albumax II but without human serum) and fresh O^+ erythrocytes (TSRI Normal Blood Donation) were used for cultures of P. falciparum strain Dd2L (gift from Dr. David Fidock, Colombia University). A Labcyte ECHO acoustic liquid handler transferred compounds into assay plates. The plates were inoculated (Multi-Flo; BioTek, VT) with parasitized erythrocytes and fresh erythrocytes prepared in screening media, resulting in a final parasitemia of 0.3% and hematocrit of 2.5%. A chamber with a low oxygen gas mixture at 37 °C was used to culture the assay plates for 72 h with daily gas exchanges. SYBR Green lysis buffer was added to the wells after incubation using a Multi-Flo liquid dispenser, and plates were incubated at room temperature for an additional 24 h to achieve optimal development of the fluorescence signal which was read by an Envision Multimode Reader (PerkinElmer, MA). The positive controls used were atovaquone (EC50 = 0.0006 μM) and artemisinin (EC50 = 0.03 μM).

In data set [3] the test system is wild type Candida albicans (WTCA, ATCC 32354). The data set is described as follows: Antifungal MIC assay, wild type C. albicans. The data set is classed as cell-based. Conditions: ATCC32354, MIC90, values expressed as 95% confidence interval, read-out: Minimal inhibitory concentration, WTCA.
Data set [4] can be described thus: Antibacterial MIC assay, Gram-negative panel. It counts as cell-based, Gram-negative bacteria (panel). The following applies: one value for the whole panel of Gram-negative strains; read-out: Minimal inhibitory concentration, Gram–.
The subject of data set [5] is amphotericin B-resistant C. albicans (ARCA, ATCC 90873). The experiment in a line: Antifungal MIC assay, amphotericin B-resistant C. albicans. The data set is classed as cell-based. Conditions: Candida albicans, ATCC90873; MIC90; values expressed as 95% confidence interval; read-out: Minimal inhibitory concentration, ARCA.
A short description of data set [6]: Cytotoxicity, human kidney cells. It counts as cell-based. Conditions: human, HEK293T cells (human kidney cells); read-out: half maximal cytotoxicity concentration (CC50), HEK293T.
For data set [7], the system named is human kidney cells (HEK293T). The data set is described as follows: Cytotoxicity, human kidney cells. The following applies: at the compound's P. falciparum EC50; cell line not restated, HEK293T assumed. It counts as cell-based.
Data set [8] has as its system methicillin-resistant Staphylococcus aureus (MRSA, ATCC 33591). The data set is described as follows: Antibacterial MIC assay, MRSA. The following applies: for MIC: Staphylococcus aureus, read-out: Minimal inhibitory concentration, MRSA. It counts as cell-based.
Data set [9] relates to Escherichia coli (EC, ATCC 25922). The data set is described as follows: Antibacterial MIC assay, E. coli. It counts as cell-based.
Data set [10] has as its system MDR Escherichia coli (MDREC, ATCC BAA-1743). The experiment in a line: microbe, parasite or virus in culture. The following applies: ATCCBAA1743, read-out: MIC, MDREC.
Setting [11] is: asexual blood stages, 72 h, 95% confidence interval, read-out: Half-maximal effective concentration, P. falciparum.
The mark [12] stands for this setting: MIC90, at least 90% inhibition of growth, values expressed as 95% confidence interval.
Where [13] appears, read: positive controls, read-out: EC50, P. falciparum.
Where [14] appears, read: ATCC25922, Gram– column, footnote e: tested only against E. coli, read-out: Minimal inhibitory concentration, Gram– (tested only against E. coli).

Regarding `Oc1ccc(Oc2ccc(Oc3ccc(Oc4ccc(Oc5ccc(Oc6ccc(Oc7ccc(Oc8ccc(Oc9ccc(-c%10ccc(O)c(O)c%10)cc9O)cc8O)cc7O)cc6O)cc5O)cc4O)cc3O)cc2O)cc1O` [compound 7, α-hydro-ω-[3,4-dihydroxyphenyl]nona[oxy(2-hydroxyphen-4-yl)]], the MIC in data set [1], in data set [3], in data set [4] and in data set [5] was above 50 mg/L each time. The EC50 in data set [2] (setting [11]) was above 2 mg/L.

Turning to `O=c1oc2cc(O)c(O)cc2c2cc(O)c(O)cc12` [compound 4, 2,3,8,9-tetrahydroxybenzo[c]chromen-6-one], the MIC in data set [1], in data set [3], in [8] (setting [12]), in data set [4] and in data set [5] was above 50 mg/L in each case. In addition, the CC50 in [6] worked out at 9.4 mg/L (≈ 36.1 µM). The “toxicity at the P. falciparum EC50 values” in [7] was “no toxicity”. Moreover, in [2] (setting [11]), the EC50 turned out to be 0.7 ± 0.1 mg/L.

Turning to `Oc1ccc(-c2ccc(O)c(O)c2)cc1O` [compound 3, 3,4,3′,4′-tetrahydroxy-1,1′-biphenyl], the MIC in data set [1], in [3], in data set [8] (setting [12]), in data set [4] and in data set [5] was above 50 mg/L throughout.

Take `O=c1oc2c(O)cc(Oc3ccc(Oc4ccc(Oc5ccc(Oc6ccc(Oc7ccc(Oc8ccc(Oc9ccc(Oc%10ccc(Oc%11ccc(-c%12ccc(O)c(O)c%12)cc%11O)cc%10O)cc9O)cc8O)cc7O)cc6O)cc5O)cc4O)cc3O)cc2c2cc(O)c(O)cc12` [compound 10, α-[(4,8,9-trihydroxy-2-benzo[c]chromen-6-on-2-yl)oxy]-ω-[3,4-dihydroxyphenyl]nona[oxy(2-hydroxyphen-4-yl)]]: the MIC in data set [1], in data set [3], in data set [4] and in [5] was above 50 mg/L each time. In data set [2] (setting [11]), the EC50 was above 2 mg/L.

Regarding `O=C1C(O)=C([C@H]2CC[C@H](c3ccc(Cl)cc3)CC2)C(=O)c2ccccc21` [atovaquone, reference compound], the EC50 in data set [2] (setting [13]) is 0.0006 µM.

In the case of `O=c1oc2c(O)cc(Oc3ccc(Oc4ccc(Oc5ccc(Oc6ccc(Oc7ccc(Oc8ccc(Oc9ccc(Oc%10ccc(Oc%11ccc(Oc%12ccc(Oc%13ccc(-c%14ccc(O)c(O)c%14)cc%13O)cc%12O)cc%11O)cc%10O)cc9O)cc8O)cc7O)cc6O)cc5O)cc4O)cc3O)cc2c2cc(O)c(O)cc12` [compound 12, α-[(4,8,9-trihydroxy-2-benzo[c]chromen-6-on-2-yl)oxy]-ω-[3,4-dihydroxyphenyl]undeca[oxy(2-hydroxyphen-4-yl)]], the MIC in [1], in data set [9] (setting [14]), in data set [3] and in data set [5] was above 50 mg/L throughout.

Regarding `O=c1oc2c(O)cc(Oc3ccc(-c4ccc(O)c(O)c4)cc3O)cc2c2c(O)c(O)ccc12` [compound 5, 4,9,10-trihydroxy-2-[(3,3′,4′-trihydroxy-(1,1′-biphenyl)-4-yl)oxy]benzo[c]chromen-6-one], the MIC is above 50 mg/L in data set [1]; above 50 mg/L in data set [3]; 13 to 49 mg/L (≈ 28.2 to 106 µM) in [8] (setting [12]); above 50 mg/L in data set [4]; above 50 mg/L in data set [5]. In [6], the CC50 turned out to be 4.5 mg/L (≈ 9.77 µM). Also, the “toxicity at the P. falciparum EC50 values” in [7] is on record as “no toxicity”. In data set [2] (setting [11]), the EC50 was found to be 1.9 ± 0.2 mg/L. Besides, the “Minimal inhibitory concentration, MRSA” value in data set [8] (setting [12]) was found to be 13 ± 2 mg/L (≈ 28.2 µM).

As to `O=C1CN(/N=C/c2ccc([N+](=O)[O-])o2)C(=O)N1` [nitrofurantoin], the MIC in data set [10] came out at 14 ± 1 mg/L (≈ 58.8 µM).

For the compound `C[C@@H]1CC[C@H]2[C@@H](C)C(=O)O[C@@H]3O[C@@]4(C)CC[C@@H]1[C@]32OO4` [artemisinin, reference compound], in data set [2] (setting [13]), the EC50 was 0.03 µM.

Consider `O=C(N[C@H](CO)[C@H](O)c1ccc([N+](=O)[O-])cc1)C(Cl)Cl` [chloramphenicol, reference compound], for which the MIC was below 8 mg/L in data set [1] and below 8 mg/L in data set [9] (ATCC25922, positive control, read-out: MIC, EC).

Regarding `O=c1oc2c(O)cc(Oc3ccc(Oc4ccc(Oc5ccc(Oc6ccc(Oc7ccc(Oc8ccc(Oc9ccc(Oc%10ccc(Oc%11ccc(Oc%12ccc(-c%13ccc(O)c(O)c%13)cc%12O)cc%11O)cc%10O)cc9O)cc8O)cc7O)cc6O)cc5O)cc4O)cc3O)cc2c2cc(O)c(O)cc12` [compound 11, α-[(4,8,9-trihydroxy-2-benzo[c]chromen-6-on-2-yl)oxy]-ω-[3,4-dihydroxyphenyl]deca[oxy(2-hydroxyphen-4-yl)]], the MIC in data set [1], in data set [3], in data set [4] and in [5] was above 50 mg/L each time.

Take `O=c1oc2c(O)cc(Oc3ccc(Oc4ccc(Oc5ccc(Oc6ccc(Oc7ccc(Oc8ccc(Oc9ccc(Oc%10ccc(-c%11ccc(O)c(O)c%11)cc%10O)cc9O)cc8O)cc7O)cc6O)cc5O)cc4O)cc3O)cc2c2cc(O)c(O)cc12` [compound 8, α-[(4,8,9-trihydroxy-2-benzo[c]chromen-6-on-2-yl)oxy]-ω-[3,4-dihydroxyphenyl]octa[oxy(2-hydroxyphen-4-yl)]]: the MIC in data set [1] was above 50 mg/L; in data set [9] (setting [14]), above 50 mg/L; in data set [3], above 50 mg/L; in data set [8] (setting [12]) it was 13 to 49 mg/L (≈ 10.7 to 40.3 µM); in data set [5] it was above 50 mg/L. Moreover, the EC50 in [2] (setting [11]) is above 2 mg/L. In data set [8] (setting [12]), the “Minimal inhibitory concentration, MRSA” value was 25 ± 3 mg/L (≈ 20.5 µM).

Consider `CN[C@H](CC(C)C)C(=O)N[C@H]1C(=O)N[C@@H](CC(N)=O)C(=O)N[C@H]2C(=O)N[C@H]3C(=O)N[C@H](C(=O)N[C@H](C(=O)O)c4cc(O)cc(O)c4-c4cc3ccc4O)[C@H](O)c3ccc(c(Cl)c3)Oc3cc2cc(c3O[C@@H]2O[C@H](CO)[C@@H](O)[C@H](O)[C@H]2O[C@H]2C[C@](C)(N)[C@H](O)[C@H](C)O2)Oc2ccc(cc2Cl)[C@H]1O` [vancomycin, reference compound], for which the MIC in data set [8] was below 4 mg/L.

Regarding `C[C@@H]1[C@H](O)[C@@H](C)/C=C/C=C/C=C/C=C/C=C/C=C/C=C/[C@H](O[C@@H]2O[C@H](C)[C@@H](O)[C@H](N)[C@@H]2O)C[C@@H]2O[C@](O)(C[C@@H](O)C[C@@H](O)[C@H](O)CC[C@@H](O)C[C@@H](O)CC(=O)O[C@H]1C)C[C@H](O)[C@H]2C(=O)O` [amphotericin B, reference compound], the MIC in [3] worked out at 16 ± 1 mg/L (≈ 17.3 µM).

With `O=c1oc2c(O)cc(Oc3ccc(Oc4ccc(Oc5ccc(Oc6ccc(Oc7ccc(Oc8ccc(Oc9ccc(-c%10ccc(O)c(O)c%10)cc9O)cc8O)cc7O)cc6O)cc5O)cc4O)cc3O)cc2c2cc(O)c(O)cc12` [compound 9, α-[(4,8,9-trihydroxy-2-benzo[c]chromen-6-on-2-yl)oxy]-ω-[3,4-dihydroxyphenyl]hepta[oxy(2-hydroxyphen-4-yl)]], the MIC is above 50 mg/L in data set [1]; above 50 mg/L in [3]; 13 to 49 mg/L (≈ 11.7 to 44.2 µM) in data set [8] (setting [12]); above 50 mg/L in [4]; above 50 mg/L in [5]. The EC50 in data set [2] (setting [11]) is above 2 mg/L. The “Minimal inhibitory concentration, MRSA” value in data set [8] (setting [12]) amounted to 14 ± 3 mg/L (≈ 12.6 µM).

With `Oc1ccc(Oc2ccc(Oc3ccc(Oc4ccc(Oc5ccc(Oc6ccc(Oc7ccc(Oc8ccc(-c9ccc(O)c(O)c9)cc8O)cc7O)cc6O)cc5O)cc4O)cc3O)cc2O)cc1O` [compound 6, α-hydro-ω-[3,4-dihydroxyphenyl]octa[oxy(2-hydroxyphen-4-yl)]], the MIC was above 50 mg/L in data set [1]; 46 ± 13 mg/L (≈ 47.2 µM) in data set [3]; 1.4 mg/L (≈ 1.44 µM) in [8] (setting [12]); above 50 mg/L in data set [4]; 46 ± 9 mg/L (≈ 47.2 µM) in [5]. In addition, the EC50 in data set [2] (setting [11]) was above 2 mg/L. Besides, the “Minimal inhibitory concentration, MRSA” value in data set [8] (setting [12]) came to 1.4 ± 0.3 mg/L (≈ 1.44 µM).
